Experimental data as given in patent publication US4442090A, “Absorption-promoting compounds, compositions thereof with pharmaceuticals and/or bases for rectal administration and method of use” (Kyoto Yakuhin Kogyo Kabushiki Kaisha, priority 1980, dated 1984).
Where “and” joins values, the source holds several entries; their conditions need not be identical. Equal values may be shown once.

Columns and labels:
[1] = Urinary excretions of AB-PC after administration of AB-PC rectal suppository (human); assay type: in vivo; conditions: AB-PC 125 mg (potency)
Experimental: The thus-obtained suppositories were administered to healthy adult male humans from the anus, and the urinary excretions of AB-PC were determined.

[2] = Blood glucose level after rectal insulin administration (rabbit); assay type: in vivo; conditions: rectal suppository, Insulin 6 I. U., Compound (I) 5%; for Blood glucose level 0 hr.: Witepsol H-15, baseline, level at hour 0 considered 100%
Source text: To measure glucose levels, blood samples were taken from the auricular vein at timed intervals and assayed by the glucose oxidase method.
The urinary excretion values in Tables 1 to 5 are percentages based on the dose administered. The blood glucose levels in Table 6 are relative blood glucose levels when the blood glucose level at hour 0 is considered to be 100%.

[3] = Urinary excretions of peptide drugs after rectal suppository (rabbit); conditions: Colistin Sodium Methanesulfonate 150,000 IU, Compound (I) 5%, Witepsol H-15
Experimental: The thus-obtained suppositories were administered to rabbits from the anus, and the urinary excretions of the pharmacologically-active substance were determined.
(§1) Each rectal suppository was administered to a depth of 2 cm from the anus of a rabbit fasted 24 hours.
(§2) To measure the urinary excretions, urine samples were collected after administration at timed intervals, diluted and assayed by the biological assay procedure.
Thus, Escherichia coli was used as assay organism and the assays were performed by the cylinder plate method (cultivation at 37° C. for 15 to 20 hours).

[4] = Urinary excretions of aminoglycoside antibiotics after rectal suppository (rabbit); conditions: Compound (I) 5%, Witepsol H-15
Experimental: The thus-obtained suppositories were administered to rabbits and the urinary excretions of the pharmacologically-active substance were determined.
as §1, §2
Thus, Bacillus subtilis was used as assay organism and the assays were performed by the cylinder plate method (cultivation at 37° C. for 15 to 20 hours).

[5] = Urinary excretions of β-lactam antibiotics after rectal suppository (rabbit); assay type: in vivo; conditions: Cefazolin 125 mg (potency), Compound (I) 5%, Witepsol H-15
Experimental: The absorption into the circulation through the rectum of the rectal suppositories thus prepared was determined by measuring urinary excretion of the pharmacologically-active substance.
Thus, Sarcina lutea and Bacillus subtilis were used as assay organisms for penicillins and cephalosporins, respectively, and the assays were performed by the paper disk method (cultivation at 37° C. for from 15 to 20 hours).

[6] = Compound (I) 10%, Witepsol H-15, Table 3
[7] = Witepsol H-15, relative to hour 0 = 100%
[8] = Fortimicin sulfate 125 mg (potency)
[9] = Gentamicin sulfate 125 mg (potency)

| SMILES | Blood glucose level 0 hr. [2] [%] | Blood glucose level 0.5 hr. [2, 7] [%] | Blood glucose level 2.0 hr. [2, 7] [%] | Blood glucose level […]. [2, 7] [%] | Urinary excretions (%) 0-2 hr. [3] | Urinary excretions (%) 2-4 hr. [3] | Urinary excretions (%) 4-6 hr. [3] | Urinary excretions (%) Total (0-6 hr.) [3] | Urinary excretions (%) 0-2 hr. [4, 9] [%] | Urinary excretions (%) 2-4 hr. [4, 9] [%] | Urinary excretions (%) 4-6 hr. [4, 9] [%] | Urinary excretions (%) Total (0-6 hr.) [4, 9] [%] | further results |
| --- | --- | --- | --- | --- | --- | --- | --- | --- | --- | --- | --- | --- | --- |
| CCCCCCCC(=O)N[C@@H](Cc1ccccc1)C(=O)O [Compound 23-Na, N--Capryloyl-L-phenylalanine] | 100 | 59.0 | 103.0 | 69.5 | 21.2% and 18.5% | 10.0% and 8.0% | 1.2% and 0.8% | 32.4% and 27.3% | 45.0 | 6.0 | 1.5 | 52.5 | Urinary excretions (%) 0-2 (hr.) [1, 6]: 24.0%; Urinary excretions (%) 2-4 (hr.) [1, 6]: 3.0%; Urinary excretions (%) 4-6 (hr.) [1, 6]: 1.2%; Urinary excretions (%) Total (0-6 hr.) [1, 6]: 28.2%; Urinary excretions (%) 0-2 hr. [4, 8]: 46.0%; Urinary excretions (%) 2-4 hr. [4, 8]: 8.0%; Urinary excretions (%) 4-6 hr. [4, 8]: 2.0%; Urinary excretions (%) Total (0-6 hr.) [4, 8]: 56.0% |
| O=C(O)CCCCCCCCCCC(=O)O [Compound 2-Na, 1,10-Decamethylenedicarboxylic acid] | 100 | 57.0 | 98.5 | 68.5 | 20.5% | 9.2% | 1.8% | 31.5% | 41.2 | 9.9 | 3.1 | 53.2 | Urinary excretions (%) 0-2 hr. [5]: 41.5%; Urinary excretions (%) 2-4 hr. [5]: 16.9%; Urinary excretions (%) 4-6 hr. [5]: 3.5%; Urinary excretions (%) Total (0-6 hr.) [5]: 61.9%; Urinary excretions of AB-PC (%) (0-6 hr.) ([1]; added compound 10%, Witepsol H-15, % of dose): 25.6%; Blood glucose level 0.75 hr. [2, 7]: 50.5% |
